Reference: paper PMC4301955 (ChemMedChem, 2012)
Several values for one entry are separate records, joined by “and”; a condition that tells them apart may be missing. Equal values may be shown once.

Legend:
ERα+ MCF-7 cells = details: for Agonist mode MCF-7 (% E2): ERα+ MCF-7 cells with ERE reporter, average efficacy (mean ± s.e.m.) as percentage of 10^−5 M 17β-estradiol
full-length human ERα = target: T1, full-length human ERα (Homo sapiens, UniProt P03372); assay type: cell-based; details: for Agonist mode ERα (% E2): HepG2 cells, average efficacy (mean ± s.e.m.) as percentage of 10^−5 M 17β-estradiol
T1 sequence (P03372 1-595): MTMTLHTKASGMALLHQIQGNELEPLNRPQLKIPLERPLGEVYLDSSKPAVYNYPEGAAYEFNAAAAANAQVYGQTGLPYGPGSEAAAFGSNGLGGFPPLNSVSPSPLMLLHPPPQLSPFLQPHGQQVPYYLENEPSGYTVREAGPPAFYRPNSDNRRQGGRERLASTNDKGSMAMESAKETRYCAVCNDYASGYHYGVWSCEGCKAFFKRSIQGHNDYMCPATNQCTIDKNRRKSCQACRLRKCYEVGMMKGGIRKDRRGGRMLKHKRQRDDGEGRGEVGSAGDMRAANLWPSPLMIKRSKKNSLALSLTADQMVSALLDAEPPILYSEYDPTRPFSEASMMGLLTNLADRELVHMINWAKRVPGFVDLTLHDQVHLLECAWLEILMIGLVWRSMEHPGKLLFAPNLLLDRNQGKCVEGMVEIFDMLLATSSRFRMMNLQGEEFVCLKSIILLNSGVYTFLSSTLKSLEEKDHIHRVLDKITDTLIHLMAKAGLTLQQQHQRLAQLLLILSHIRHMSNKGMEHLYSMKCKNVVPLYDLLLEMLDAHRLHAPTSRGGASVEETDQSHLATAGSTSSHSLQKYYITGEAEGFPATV

[1] = target: T2, purified full-length human ERα (Homo sapiens, UniProt P03372); details: for Relative binding affinity (RBA) ERα: IC50 estradiol/IC50 compound ×100, estradiol = 100%, ± range or SD, n = 2–3, 10 nM [3H]estradiol, 18–24 h at 0 °C
T2 sequence (P03372 1-595): T1 sequence (P03372 1-595)

full-length human ERβ [2] = target: T3, full-length human ERβ (Homo sapiens, UniProt Q92731); assay type: cell-based; details: HepG2 cells; average efficacy (mean ± s.e.m.) as percentage of 10^−5 M 17β-estradiol
full-length human ERβ [3] = target: T3, full-length human ERβ; assay type: cell-based
[4] = target: purified full-length human ERβ (Homo sapiens, UniProt Q92731); details: IC50 estradiol/IC50 compound ×100, estradiol = 100%; ± range or SD, n = 2–3; 10 nM [3H]estradiol, 18–24 h at 0 °C
Sequence of purified full-length human ERβ (Q92731 whole entry): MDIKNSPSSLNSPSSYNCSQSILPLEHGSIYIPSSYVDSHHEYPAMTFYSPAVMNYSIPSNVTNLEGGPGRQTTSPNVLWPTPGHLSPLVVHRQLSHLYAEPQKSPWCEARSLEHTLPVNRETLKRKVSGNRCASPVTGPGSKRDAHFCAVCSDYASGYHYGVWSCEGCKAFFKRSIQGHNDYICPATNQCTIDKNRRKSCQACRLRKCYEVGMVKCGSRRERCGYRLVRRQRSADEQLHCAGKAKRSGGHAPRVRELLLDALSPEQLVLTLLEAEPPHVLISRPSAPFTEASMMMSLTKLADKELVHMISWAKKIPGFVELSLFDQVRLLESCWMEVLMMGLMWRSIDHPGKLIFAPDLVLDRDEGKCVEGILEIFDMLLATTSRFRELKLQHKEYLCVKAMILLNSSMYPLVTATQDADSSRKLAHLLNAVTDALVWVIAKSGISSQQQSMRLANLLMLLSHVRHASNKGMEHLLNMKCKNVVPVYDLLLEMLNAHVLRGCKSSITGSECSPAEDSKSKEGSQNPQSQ

T3 sequence (Q92731 whole entry): as above

EC50 (full-length human ERα) [µM]	Agonist mode ERα (% E2) (full-length human ERα)	Relative binding affinity (RBA) ERα [1]	Agonist mode ERβ (% E2) (full-length human ERβ [2])	IC50 (full-length human ERβ [3]) [µM]	Relative binding affinity (RBA) ERβ [4]	α/β ratio ([1]; ratio of the RBA for ERα to the RBA for ERβ)	SMILES	Activity profile in MCF-7 cells (in words) (ERα+ MCF-7 cells; 3xERE-luciferase, ERα-positive MCF-7 cells)	Agonist mode MCF-7 (% E2) (ERα+ MCF-7 cells)	Antagonist mode ERβ (% E2) (full-length human ERβ [3])
–	29 ± 1	5.03 ±1.5%	1 ± 2	–	0.478 ±0.12%	10.52	O=S(=O)(Oc1cccc2ccccc12)C1CC2OC1C(c1ccc(O)cc1)=C2c1ccc(O)cc1 (centres unmarked) [Compound 2m]	–	−4 ± 1	–
–	1 ± 1	–	–	–	–	–	C[C@]12CC[C@@H]3c4ccc(O)cc4C[C@@H](CCCCCCCCC[S+]([O-])CCCC(F)(F)C(F)(F)F)[C@H]3[C@@H]1CC[C@@H]2O (some centres unmarked) [Faslodex, reference compound]	–	−4 ± 4	–

More lines, now with the values behind:

SMILES	EC50 (full-length human ERα) [µM]	Agonist mode ERα (% E2) (full-length human ERα)	Relative binding affinity (RBA) ERα [1]	Agonist mode ERβ (% E2) (full-length human ERβ [2])	IC50 (full-length human ERβ [3]) [µM]	Relative binding affinity (RBA) ERβ [4]	α/β ratio ([1]; ratio of the RBA for ERα to the RBA for ERβ)	Activity profile in MCF-7 cells (in words) (ERα+ MCF-7 cells; 3xERE-luciferase, ERα-positive MCF-7 cells)	Agonist mode MCF-7 (% E2) (ERα+ MCF-7 cells)	Antagonist mode ERβ (% E2) (full-length human ERβ [3])
O=S(=O)(Oc1ccccc1)[C@H]1C[C@H]2O[C@@H]1C(c1ccc(O)cc1)=C2c1ccc(O)cc1 [Compound 1]	–	–	–	–	–	–	–	limited agonist activity	21 ± 4	–
O=S(=O)(Oc1ccccc1Cl)C1CC2OC1C(c1ccc(O)cc1)=C2c1ccc(O)cc1 (centres unmarked) [Compound 2b, 5,6-Bis-(4-hydroxyphenyl)-7-oxabicyclo[2.2.1]hept-5-ene-2-sulfonic Acid 2-Chlorophenyl Ester]	> 10	29 ± 5	19.0% and 19.00 ±4.6%	1 ± 1	> 10	1.76% and 1.76 ±0.13%	–	–	−7 ± 2	–
CC/C(=C(\c1ccc(O)cc1)c1ccc(OCCN(C)C)cc1)c1ccccc1 [Compound 4-OHT, 4-hydroxytamoxifen, reference compound]	–	–	–	−1 ± 1	–	–	–	–	−11 ± 1	−20 ± 2
